The values below come from paper PMC9505123, “Zeta-Carotene Isomerase (Z-ISO) Is Required for Light-Independent Carotenoid Biosynthesis in the Cyanobacterium Synechocystis sp. PCC 6803” (Microorganisms, 2022).

Each structure is given as a SMILES string.

The target of the assay is T1, Synechocystis ZDS (CrtQ) (Synechocystis sp. PCC 6803, UniProt P74306).
T1 construct: pCDFDuet-1 MCS1, co-expressed with slr1599 (pAH587) or maize Z-ISO (pAH590) in E. coli BL21(DE3) with pAC-ZETAipi
T1 sequence (P74306 1-489): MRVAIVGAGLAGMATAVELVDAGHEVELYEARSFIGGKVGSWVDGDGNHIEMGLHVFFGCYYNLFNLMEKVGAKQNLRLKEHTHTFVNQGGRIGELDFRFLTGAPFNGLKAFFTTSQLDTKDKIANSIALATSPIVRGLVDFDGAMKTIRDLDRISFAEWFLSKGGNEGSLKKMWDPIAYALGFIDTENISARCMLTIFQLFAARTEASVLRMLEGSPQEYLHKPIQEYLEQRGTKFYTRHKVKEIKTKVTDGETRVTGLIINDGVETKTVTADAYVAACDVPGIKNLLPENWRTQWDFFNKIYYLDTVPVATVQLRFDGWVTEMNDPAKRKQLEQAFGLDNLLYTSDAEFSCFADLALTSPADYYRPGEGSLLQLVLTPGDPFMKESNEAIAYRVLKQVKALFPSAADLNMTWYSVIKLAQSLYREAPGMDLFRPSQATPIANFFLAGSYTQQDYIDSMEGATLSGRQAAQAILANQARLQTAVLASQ
Nature of the assay: RP-HPLC of carotenoids from dark-grown E. coli co-expressing pAC-ZETAipi and Z-ISO. The assay is classed as cell-based. Conditions: 37 °C, 24 h, substrate formed in situ by Slr1599 or maize Z-ISO, converted to cis-lycopene isomers.

For `CC(C)=CCC/C(C)=C/CC\C(C)=C/C=C/C(C)=C/C=C/C=C(C)/C=C/C=C(/C)CC/C=C(\C)CCC=C(C)C` [9,9′-di-cis-ζ-carotene], the “RP-HPLC of carotenoids from dark-grown E. coli co-expressing pAC-ZETAipi and Z-I” value was “ζ-carotene species were almost completely absent and a variety of new carotenoid species”.
